The first data set addresses T1, AR (Homo sapiens, UniProt P10275, T878A).
T1 construct: into the androgen-dependent PCa cells (LNCaP); endogenous in cells; host or cells: LNCaP-ARR2PB-eGFP
T1 sequence (P10275 1-920 T878A): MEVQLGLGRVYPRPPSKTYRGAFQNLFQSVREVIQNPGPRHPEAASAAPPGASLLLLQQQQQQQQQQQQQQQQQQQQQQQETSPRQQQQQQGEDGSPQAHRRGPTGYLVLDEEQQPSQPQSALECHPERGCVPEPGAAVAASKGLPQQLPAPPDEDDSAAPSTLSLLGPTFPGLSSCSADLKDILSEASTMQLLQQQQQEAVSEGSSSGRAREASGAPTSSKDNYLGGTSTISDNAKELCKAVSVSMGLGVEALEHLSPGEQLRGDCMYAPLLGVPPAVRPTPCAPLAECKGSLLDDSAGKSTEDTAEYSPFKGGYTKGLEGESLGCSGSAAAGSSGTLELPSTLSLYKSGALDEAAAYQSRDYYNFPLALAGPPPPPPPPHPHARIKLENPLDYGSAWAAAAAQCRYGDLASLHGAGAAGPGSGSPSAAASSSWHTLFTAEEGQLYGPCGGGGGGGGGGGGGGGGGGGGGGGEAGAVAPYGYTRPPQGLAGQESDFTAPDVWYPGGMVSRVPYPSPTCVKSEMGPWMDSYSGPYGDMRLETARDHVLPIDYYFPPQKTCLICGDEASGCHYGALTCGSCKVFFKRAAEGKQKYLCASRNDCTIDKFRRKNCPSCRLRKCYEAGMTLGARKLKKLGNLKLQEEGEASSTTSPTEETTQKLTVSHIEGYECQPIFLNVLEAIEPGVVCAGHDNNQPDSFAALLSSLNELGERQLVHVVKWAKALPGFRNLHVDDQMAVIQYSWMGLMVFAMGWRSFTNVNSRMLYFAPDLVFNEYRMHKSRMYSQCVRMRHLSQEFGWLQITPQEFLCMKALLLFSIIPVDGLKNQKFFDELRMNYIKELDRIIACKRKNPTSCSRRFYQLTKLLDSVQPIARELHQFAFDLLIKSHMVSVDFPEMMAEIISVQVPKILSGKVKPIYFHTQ
Nature of the data set: AR transcriptional activity, LNCaP-ARR2PB-eGFP reporter cells. The following applies: read-out: IC50 AR transcriptional activities. Format: cell-based. From the text: Detection principles: We conducted a stable transfection of promoter ARR2PB known for its strong AR responsiveness, into the androgen-dependent PCa cells (LNCaP). The expression of enhanced green fluorescent protein (eGFP) is depending on the degree of activation of AR. Therefore, LNCaP-ARR2PB-eGFP cell line could quantitatively determine the AR antagonistic activities of the compounds by evaluating the expression of eGFP.
As for `Cc1oc(C(=O)Nc2nc(CC(C)(O)C(F)(F)F)ns2)cc1-c1cccc(C(F)(F)F)c1` (centres unmarked) [Compound F-13, 5-Methyl-N-(3-(3,3,3-trifluoro-2-hydroxy-2-methylpropyl)-1,2,4-thiadiazol-5-yl)-4-(3-(tri-fluoromethyl)phenyl)furan-2-carboxamide], the IC50 came to 31.5 µM.
In the case of `COc1cccc(-c2cc(C(=O)Nc3nc(CC(C)=C(F)F)ns3)oc2C)c1` [Compound F-15, N-(3-(3,3-difluoro-2-methylallyl)-1,2,4-thiadiazol-5-yl)-4-(3-methoxyphenyl)-5-methyl-furan-2-carboxamide], the IC50 stood at 35.9 µM.
Same read-out and setting: for `Cc1oc(C(=O)Nc2nc(CC(C)(F)F)ns2)cc1-c1cccc(OC(F)(F)F)c1` [Compound F-17, N-(3-(2,2-difluoropropyl)-1,2,4-thiadiazol-5-yl)-5-methyl-4-(3-(trifluoromethoxy)phenyl)furan-2-carboxamide] the value was 25 µM; for `Cc1oc(C(=O)Nc2nc(CCl)ns2)cc1-c1cccc(C(F)(F)F)c1` [Compound F-19, N-(3-(chloromethyl)-1,2,4-thiadiazol-5-yl)-5-methyl-4-(3-(trifluoromethyl)phenyl)furan-2-carboxamide], 19.1 µM; for `Cc1oc(C(=O)Nc2nc(CN3CCCC3)ns2)cc1-c1cccc(C(F)(F)F)c1` [Compound F-24, 5-Methyl-N-(3-(pyrrolidin-1-ylmethyl)-1,2,4-thiadiazol-5-yl)-4-(3-(trifluoromethyl)phenyl)furan-2-carboxamide], 35.2 µM.
Regarding `Cc1oc(C(=O)Nc2nc(CN3CCCCC3)ns2)cc1-c1cccc(C#N)c1` [Compound F-25, 4-(3-Cyanophenyl)-5-methyl-N-(3-(piperidin-1-ylmethyl)-1,2,4-thiadiazol-5-yl)furan-2-carboxamide], the IC50 was found to be 15.5 µM.
Still for that read-out and setting: for `COc1cccc(-c2cc(C(=O)Nc3nc(CN4CCOCC4)ns3)oc2C)c1` [Compound F-26, 4-(3-Methoxyphenyl)-5-methyl-N-(3-(morpholinomethyl)-1,2,4-thiadiazol-5-yl)furan-2-carboxamide] the value was 31.9 µM.
As to `Cc1oc(C(=O)Nc2nc(CN3CCOCC3)ns2)cc1-c1cccc(OC(F)(F)F)c1` [Compound F-27, 5-Methyl-N-(3-(morpholinomethyl)-1,2,4-thiadiazol-5-yl)-4-(3-(trifluoromethoxy)phenyl)furan-2-carboxamide], the IC50 was 15.6 µM.
`Cc1oc(C(=O)Nc2nc(CN3CCN(C)CC3)ns2)cc1-c1cccc(OC(F)F)c1` [Compound F-28, 4-(3-(Difluoromethoxy)phenyl)-5-methyl-N-(3-((4-methylpiperazin-1-yl)methyl)-1,2,4-thiadiazol-5-yl)furan-2-carboxamide]: the IC50 came to 16.4 µM.
For the compound `CC(=O)Cc1nsc(NC(=O)c2cc(-c3cccc(C#N)c3)co2)n1` [Compound G-2, 4-(3-Cyanophenyl)-N-(3-(2-oxopropyl)-1,2,4-thiadiazol-5-yl)furan-2-carboxamide], the 50% inhibitory concentration (IC50) came to 35.5 µM.
The same measure, in the same setting: next, `COc1cccc(-c2coc(C(=O)Nc3nc(CC(C)=O)ns3)c2)c1` [Compound G-3, 4-(3-Methoxyphenyl)-N-(3-(2-oxopropyl)-1,2,4-thiadiazol-5-yl)furan-2-carboxamide]: 33.6 µM; `CC(=O)Cc1nsc(NC(=O)c2cc(-c3cccc(OC(F)(F)F)c3)co2)n1` [Compound G-4, N-(3-(2-oxopropyl)-1,2,4-thiadiazol-5-yl)-4-(3-(trifluoromethoxy)phenyl)furan-2-carboxamide]: 11.6 µM.
Regarding `CC(=O)Cc1nsc(NC(=O)c2cc(-c3cccc(OC(F)F)c3)co2)n1` [Compound G-5, 4-(3-(Difluoromethoxy)phenyl)-N-(3-(2-oxopropyl)-1,2,4-thiadiazol-5-yl)furan-2-carboxamide], the IC50 was 32.7 µM.
Regarding `CC(Cc1nsc(NC(=O)c2cc(-c3cccc(C(F)(F)F)c3)co2)n1)N1CCCC1` (centres unmarked) [Compound G-6, N-(3-(2-(pyrrolidin-1-yl)propyl)-1,2,4-thiadiazol-5-yl)-4-(3-(trifluoromethyl)phenyl) furan-2-carboxamide], the IC50 was 13.9 µM.
The same measure, in the same setting: for `CC(Cc1nsc(NC(=O)c2cc(-c3cccc(C#N)c3)co2)n1)N1CCCCC1` (centres unmarked) [Compound G-7, 4-(3-Cyanophenyl)-N-(3-(2-(piperidin-1-yl)propyl)-1,2,4-thiadiazol-5-yl)furan-2-carboxamide] the value was 23.2 µM; for `COc1cccc(-c2coc(C(=O)Nc3nc(CC(C)N4CCOCC4)ns3)c2)c1` (centres unmarked) [Compound G-8, 4-(3-Methoxyphenyl)-N-(3-(2-morpholinopropyl)-1,2,4-thiadiazol-5-yl)furan-2-carboxamide], 19.2 µM.
Take `CC(Cc1nsc(NC(=O)c2cc(-c3cccc(OC(F)(F)F)c3)co2)n1)N1CCN(C)CC1` (centres unmarked) [Compound G-9, N-(3-(2-(4-methylpiperazin-1-yl)propyl)-1,2,4-thiadiazol-5-yl)-4-(3-(trifluoromethoxy)phenyl)furan-2-carboxamide]: the IC50 is 47.2 µM.
Take `CC(Cc1nsc(NC(=O)c2cc(-c3cccc(OC(F)F)c3)co2)n1)N1CCN(C)CC1` (centres unmarked) [Compound G-10, 4-(3-(Difluoromethoxy)phenyl)-N-(3-(2-(4-methylpiperazin-1-yl)propyl)-1,2,4-thiadiazol-5-yl)furan-2-carboxamide]: the IC50 is 15.3 µM.
On the same count and under the same terms, next, `CC(O)Cc1nsc(NC(=O)c2cc(-c3cccc(C(F)(F)F)c3)co2)n1` (centres unmarked) [Compound G-11, N-(3-(2-hydroxypropyl)-1,2,4-thiadiazol-5-yl)-4-(3-(trifluoromethyl)phenyl)furan-2-carboxamide]: 29.3 µM.
`CC(O)(Cc1nsc(NC(=O)c2cc(-c3cccc(C#N)c3)co2)n1)C(F)(F)F` (centres unmarked) [Compound G-13, 4-(3-Cyanophenyl)-N-(3-(3,3,3-trifluoro-2-hydroxy-2-methylpropyl)-1,2,4-thiadiazol-5-yl) furan-2-carboxamide]: the IC50 amounted to 22 µM.
The same measure, in the same setting: next, `COc1cccc(-c2coc(C(=O)Nc3nc(CC(C)=C(F)F)ns3)c2)c1` [Compound G-15, N-(3-(3,3-difluoro-2-methylallyl)-1,2,4-thiadiazol-5-yl)-4-(3-methoxyphenyl)furan-2-carboxamide]: 24.1 µM; `CC(F)(F)Cc1nsc(NC(=O)c2cc(-c3cccc(OC(F)(F)F)c3)co2)n1` [Compound G-17, N-(3-(2,2-difluoropropyl)-1,2,4-thiadiazol-5-yl)-4-(3-(trifluoromethoxy)phenyl)furan-2-carboxamide]: 23 µM.
On to `O=C(Nc1nc(CCl)ns1)c1cc(-c2cccc(C(F)(F)F)c2)co1` [Compound G-19, N-(3-(chloromethyl)-1,2,4-thiadiazol-5-yl)-4-(3-(trifluoromethyl)phenyl)furan-2-carboxamide], for which the concentration for half-maximal inhibition (IC50) was found to be 31.4 µM.
On the same count and under the same terms, next, `O=C(Nc1nc(CN2CCCC2)ns1)c1cc(-c2cccc(C(F)(F)F)c2)co1` [Compound G-24, N-(3-(pyrrolidin-1-ylmethyl)-1,2,4-thiadiazol-5-yl)-4-(3-(trifluoromethyl)phenyl)furan-2-carboxamide]: 24.2 µM; `N#Cc1cccc(-c2coc(C(=O)Nc3nc(CN4CCCCC4)ns3)c2)c1` [Compound G-25, 4-(3-Cyanophenyl)-N-(3-(piperidin-1-ylmethyl)-1,2,4-thiadiazol-5-yl)furan-2-carboxamide]: 19.8 µM; `COc1cccc(-c2coc(C(=O)Nc3nc(CN4CCOCC4)ns3)c2)c1` [Compound G-26, 4-(3-Methoxyphenyl)-N-(3-(morpholinomethyl)-1,2,4-thiadiazol-5-yl)furan-2-carboxamide]: 27.1 µM.
`CN1CCN(Cc2nsc(NC(=O)c3cc(-c4cccc(OC(F)(F)F)c4)co3)n2)CC1` [Compound G-27]: the IC50 turned out to be 26.2 µM.
On the same count and under the same terms, for `CN1CCN(Cc2nsc(NC(=O)c3cc(-c4cccc(OC(F)F)c4)co3)n2)CC1` [Compound G-28, 4-(3-(Difluoromethoxy)phenyl)-N-(3-((4-methylpiperazin-1-yl)methyl)-1,2,4-thiadiazol-5-yl)furan-2-carboxamide] the value was 39.2 µM.

For another data set, the system named is LNCaP xenograft. Put plainly: LNCaP xenograft model in vivo. The settings on record: intratumor injection 2.5 mg/kg/week.
Method: Methods: LNCaP cells were injected to the Male CB17 SCID mice (6-8 weeks old). Once tumor size reached target value, the mice were randomized into three groups with 6-8 mice per group. […] The mice weight and tumor volume were periodically recorded. Finally, the tumors were harvested.
With `CNC(=O)c1ccc(N2C(=S)N(c3ccc(C#N)c(C(F)(F)F)c3)C(=O)C2(C)C)cc1F` [Enzalutamide, reference compound], the body weight result is reported as “no significant loss of body weight”.

As a reminder, the IC50 is the concentration needed to halve the response being measured.

(Values after US20240376091A1, “THIADIAZOLEAMIDE DERIVATIVES AND THEIR APPLICATIONS” (ZHEJIANG UNIVERSITY, priority 2021, published 2024).)
